In test [1] the test system is platelet aggregation induced by U-46619 in human platelet-rich plasma (PRP). In words: Platelet aggregation inhibitory action (U-46619-induced, human platelet-rich plasma). The conditions noted are these: compounds added 1 minute before U-46619, turbidity. Type of test: cell-based. The method, then:
Human whole blood drawn from the median cubital vein was centrifuged for 10 minutes at 800 rpm, and the upper portion was collected as platelet-rich plasma (PRP). […] The size of the aggregates were measured with a platelet aggregate measuring instrument (Hematracer 1, Nikko Bioscience) as the change in turbidity. The compounds were added 1 minute before addition of U-46619, and the concentration which inhibits aggregation by 50% was calculated as the IC50 value.

The subject of test [2] is vasoconstriction of rat thoracic aorta induced by U-46619. In words: Vasoconstriction inhibitory action (U-46619-induced constriction of thoracic aorta spiral specimens). Also noted: species or system long Evans rats. The conditions noted are these: 10 min, pH 7.4, minimum concentration at which inhibition rate was 50% or more, 10 ng/ml U-46619, drug applied 10 minutes, 37° C., read-out: Vasoconstriction Inhibitory Action MIC. The method, then: Male and female long Evans rats having body weights of 150-200 g were used in this example. After sacrificing the animals by decapitation, the thoracic aorta was removed, and the outer membrane was peeled off to obtain I2 spiral specimens roughly 2 cm in length. Blood vessel specimens were warmed to 37° C. and preserved in a Magnus tube containing 10 ml of a nutrient solution aerated with 95% oxygen+5% carbon dioxide gas. The nutrient solution contained 118.3 mmol of NaCl, 4.7 mmol of KCl, […] of CaCl, 1.2 mmol of MgSO4, 1.2 mmol of KH2 PO4, 25 mmol of NaCHO3, 11.1 mmol of D-glucose, 0.03 mmol of EDTA along with 1 μg/ml each of atropin, phentolamine, mepiramine, cyproheptadine, propranolol and indometacin, and was adjusted to a pH of 7.4. Vasoconstriction was measured using an isometric transducer (Harward UF-1 Transducer and Sekonic SS-250F Graph recorder). An equilibration time of 3 hours was provided after the blood vessels were installed on the Magnus device, and fresh nutrient solution was replaced every 30 minutes during that time. […] of U-46619, having TXA2 action (to reach roughly 75% of maximum constriction), was applied for 30 minutes to constrict the vessels. The maximum stable constriction during this time was taken to be the control constriction (C1). Next, the blood vessels were washed several times with nutrient solution to remove the drug. After allowing a recovery period of 30 minutes, the test drugs were applied at various concentrations for 10 minutes followed by again constricting the vessels by applying 10 ng/ml of U-46619 for 30 minutes. The maximum stable constriction during this time was taken to be the constriction of the test drugs (C2). The inhibition rates of vasoconstriction induced by the drugs and U-46619 were determined according to the following formula, and the minimum concentration at which the inhibition rate was 50% or more was determined as the minimum inhibitory concentration (MIC).
((C1-C2)/C1)×100=Inhibition rate (%)

The next test concerns the target T1, Thromboxane A2 Receptor (Oryctolagus cuniculus, UniProt Q6WQI8).
T1 sequence (Q6WQI8 1-233): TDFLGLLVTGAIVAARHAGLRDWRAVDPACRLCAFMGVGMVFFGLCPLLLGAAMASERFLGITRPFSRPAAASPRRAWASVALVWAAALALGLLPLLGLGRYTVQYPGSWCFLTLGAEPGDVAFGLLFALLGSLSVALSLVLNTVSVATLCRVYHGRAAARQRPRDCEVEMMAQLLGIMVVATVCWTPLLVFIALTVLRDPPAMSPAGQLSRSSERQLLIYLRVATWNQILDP
In words: Receptor binding experiment: Thromboxane A2 Receptor Binding Test ([3H]SQ29548, washed platelets). Also noted: species or system New Zealand White rabbits. The conditions noted are these: rabbit washed platelets; [3H]SQ29548 3 nM; 60 minutes at 25° C.; read-out: Binding Inhibitory Action IC50 (converted). The protocol:
Whole blood from New Zealand White rabbits was collected into a container containing ACD solution (1.175 g of sodium citrate, 0.685 g of citric acid, and 1 g of dextrose dissolved in 50 ml of distilled water) followed by centrifuging at room temperature for 10 minutes at 180 ×g to obtain platelet-rich plasma. Moreover, this platelet-rich plasma was further centrifuged at room temperature and 2800 ×g to result in sedimentation of the platelets. The platelets were resuspended in 50 mM Tris hydrochloric acid buffer solution (pH 7.2, containing […]) and again centrifuged at 4° C. for 15 minutes at 2800 ×g. This procedure was repeated twice to prepare the washed platelets, and adjusted to a final concentration of 10 mg/ml (wet weight). Tritium-labelled SQ29548 ([3H]SQ29548) was used for the TXA2 ligand. In an antagonism experiment, 20 μl of [3H]SQ29548 at a final concentration of 3 nM were added to 500 μl of a 10 mg/ml platelet suspension, together with adding 2.6 μl of the test drug dissolved in a suitable buffer. After incubating for 60 minutes at 25° C., the mixture was filtered over a glass filter using the Celherbster method, the filter was washed with 50 mM Tris hydrochloric acid buffer solution (3 ×4 ml), and radioactivity was measured with a scintillation counter to determine the amount of [3H]SQ29548 bound to the platelets. In addition, in a saturation test, 20 μl of [3H]SQ29548 were added to a final concentration of 0.1-50 nM followed by the addition of 2.6 μl of BM13505 at a final concentration of 1 μM in order to examine non-specific binding and carry out a binding experiment. The concentration of the test drug which inhibited binding of [3H]SQ29548 by 50% was determined as the IC50 value.

This is an account of results in patent publication US5496849A, “Sulfonic acid derivative and its pharmaceutical application” (Toray Industries, Inc., priority 1992, dated 1996).

By IC50 is commonly meant the concentration that gives 50% inhibition. `O=C(O)COc1cccc2c1O[C@H]1C[C@@H](O)[C@H](NS(=O)(=O)c3ccccc3Cl)[C@@H]21` (relative stereo) [(59), (1RS, 2RS, 3aSR, 8bRS)-1-(o-chlorobenzenesulfonamido)-2-hydroxy-2,3,3a,8b-tetrahydro-1-cyclopenta[b]benzofuran-5-yloxyacetic acid]: the IC50 was 69 nM in test [1] and 22.7 nM at Thromboxane A2 Receptor. Besides, the minimal effective concentration in test [2] came to 0.1 µg/mL.

Take `O=C(O)/C=C/c1cccc2c1O[C@H]1C[C@@H](O)[C@H](NS(=O)(=O)c3ccccc3)[C@@H]21` (relative stereo) [(88), (1RS, 2RS, 3aSR, 8bRS)-1-benzenesulfonamido-2-hydroxy-2,3,3a,8b-tetrahydro-1H-cyclopenta[b]benzofuran-5-(E)-acrylic acid]: the values for the IC50 (in test [1]; on Thromboxane A2 Receptor) were 450 nM and 648 nM, respectively. For the same compound, in test [2], the minimal effective concentration turned out to be 0.3 µg/mL.

`O=C(O)COc1ccc(CCNS(=O)(=O)c2ccccc2)cc1` [Control, 4-(2-(benzenesulfonamido)ethyl) phenoxyacetic acid, reference compound]: the 50% inhibitory concentration (IC50) in test [1] is 5000 nM; at Thromboxane A2 Receptor, 4170 nM. In test [2], the minimal effective concentration stood at 0.3 µg/mL.
